Data on six molecules can be found in patent US9809623B2, “α4β7 peptide monomer and dimer antagonists” (Protagonist Therapeutics, Inc., priority 2014, dated 2017).

pIC50: −log10 of the molar value. Numbered stars: 1 amine (or outer) side, 2 acyl side, 3 side chain; on linkers, the order of the positions; unused ones are H or OH. Bridge positions count the residues as written; N and C are the ends. Square brackets hold non-standard residues; d marks the D form. Peptide text beside a SMILES is read from it. I, II: the chains in the order shown. Phe(3,4-Cl2) = N[C@@H](Cc1ccc(Cl)c(Cl)c1)C(=O)O; Bip = N[C@@H](Cc1ccc(-c2ccccc2)cc1)C(=O)O; 1Nal = N[C@@H](Cc1cccc2ccccc12)C(=O)O; 2Nal = N[C@@H](Cc1ccc2ccccc2c1)C(=O)O; Diglycolyl = O=C(COCC(=O)[*:2])[*:1]; NMeR = CN[C@@H](CCCNC(=N)N)C(=O)O; β3hE = N[C@@H](CCC(=O)O)CC(=O)O; NMeK = CN[C@@H](CCCCN)C(=O)O; Pen = CC(C)(S)[C@H](N)C(=O)O; dNMeK = CN[C@H](CCCCN)C(=O)O

In one data set the target is α4β7 (Homo sapiens, UniProt P13612+P26010). The data set is described as follows: α4β7-MAdCAM Cell Adhesion Assay (RPMI 8866 human cells). The format is cell-based. On the set-up: host or cells: RPMI 8866 human B lymphoblastoid cells. To be noted: Table 3-B, Potency (α4β7); range classes; read-out: α4β7 cell (Hu) IC50. In a few lines:
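Adhesion read-out: MTT absorbance at 570 nm minus no-cell wells, after three washes. Plates coated with rh MAdCAM-1/Fc received peptide dilutions plus 200,000 RPMI 8866 cells in Mn2+ (1 mM)-supplemented DMEM, 0.1% BSA, HEPES pH 7, incubated 30-45 min, 37 °C.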

Another data set concerns the target T1, α4β1 (Homo sapiens, UniProt P05556+P13612, DEL729-798).
T1 construct: purchased R&D Systems 5668-A4
The data set is described as follows: α4β1-VCAM Competition ELISA. Format: binding. Particulars: Table 3-B, Selectivity (α4β1); range classes; read-out: α4β1 ELISA IC50. The protocol:
A Nunc MaxiSorp plate was coated with rh VCAM-1/CD106 Fc chimera (R&D #862-VC) at 400 ng/well in 50 ul per well in 1×PBS and incubated overnight at 4° C. The solution was removed by shaking and then blocked with 250 ul of 1% BSA in 1×PBS per well. The wells were then incubated at room temperature for 1 hr with shaking. Each well was then washed once with wash buffer (50 mM Tris-HCl pH7.6, 100 mM NaCL, 1 mM MnCl2 or MgCl2, 0.05% Tween-20). 25 ul of serial dilutions of peptides starting at 200 μM in assay buffer (Assay buffer: 50 mM Tris-HCl pH7.6, 100 mM NaCl, 1 mM MnCl2 or MgCl2, 0.05% Tween-20) was added to each well. Additionally, 25 ul of α4β1 (R&D Systems #5668-A4) was added to each well at a fixed concentration of 120 nM. The final peptide and α4β1 concentrations were 100 μM and 60 nM, respectively. The plates were then incubated at 37° C. for 2 hr. The solution was then removed by shaking, and each well was washed three times with wash buffer. 50 ul of 9F10 antibody at 4 ug/ml (purified mouse anti-human CD49d, BD Bioscience Cat#555502) was then added to each well, and the plate was incubated at room temperature for 1 hr with shaking. The solution was again removed by shaking, and each well was washed three times with wash buffer. 50 ul of peroxidase-conjugated AffiniPure Goat anti-mouse IgG (Jackson immune research cat #115-035-003) diluted in 1:5000 in assay buffer was added to each well. The plate was incubated at room temperature for 30 min with shaking. Each well was then washed 3 times with wash buffer. 100 ul of TMB was then added to each well and closely observe during developing time. The reaction was stepped with 2N H2SO4 and absorbance was read at 450 nm.
A general note: In an ELISA, binding on a coated surface is turned into a signal by an enzyme label.

In the next data set the target is T2, rh integrin α4β7 (Homo sapiens, UniProt P13612+P26010).
T2 construct: purchased R&D Systems 5397-A30
The data set is described as follows: α4β7-MAdCAM Competition ELISA. The format is binding. To be noted: Table 3-B, Potency (α4β7); range classes; read-out: α4β7 ELISA IC50. In a few lines:
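Competition read-out was A450 after anti-human IgG1-HRP and TMB detection of bound recombinant human MAdCAM-1 (10 nM final). Peptides were serially diluted 3-fold from a final 10 μM and equilibrated 1 h at room temperature on nickel-captured α4β7 (800 ng/well). The buffer was Tris pH 7.6 with 1 mM Mn2+ or Mg2+.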

Data set [1] is described as follows: Simulated Intestinal Fluid (SIF) Stability Assay. The format is in vitro ADME, porcine. To be noted: pig, simulated intestinal fluid (SIF) with 1% porcine pancreatin, pH 6.5, Table 3-B; > means experiment was stopped at that time and half life was not reached; read-out: Stabilty SIF t1/2. In short, it runs like this:
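Intestinal stability: percent peptide remaining over time, by LC-MS/MS peak-area ratio to internal standard, fitted to first-order decay for half-life. Conditions: 22 μM peptide, 1% pancreatin in pH 6.5 blank FASSIF, 37 °C.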

α4β7, sequence (P13612 34-1032): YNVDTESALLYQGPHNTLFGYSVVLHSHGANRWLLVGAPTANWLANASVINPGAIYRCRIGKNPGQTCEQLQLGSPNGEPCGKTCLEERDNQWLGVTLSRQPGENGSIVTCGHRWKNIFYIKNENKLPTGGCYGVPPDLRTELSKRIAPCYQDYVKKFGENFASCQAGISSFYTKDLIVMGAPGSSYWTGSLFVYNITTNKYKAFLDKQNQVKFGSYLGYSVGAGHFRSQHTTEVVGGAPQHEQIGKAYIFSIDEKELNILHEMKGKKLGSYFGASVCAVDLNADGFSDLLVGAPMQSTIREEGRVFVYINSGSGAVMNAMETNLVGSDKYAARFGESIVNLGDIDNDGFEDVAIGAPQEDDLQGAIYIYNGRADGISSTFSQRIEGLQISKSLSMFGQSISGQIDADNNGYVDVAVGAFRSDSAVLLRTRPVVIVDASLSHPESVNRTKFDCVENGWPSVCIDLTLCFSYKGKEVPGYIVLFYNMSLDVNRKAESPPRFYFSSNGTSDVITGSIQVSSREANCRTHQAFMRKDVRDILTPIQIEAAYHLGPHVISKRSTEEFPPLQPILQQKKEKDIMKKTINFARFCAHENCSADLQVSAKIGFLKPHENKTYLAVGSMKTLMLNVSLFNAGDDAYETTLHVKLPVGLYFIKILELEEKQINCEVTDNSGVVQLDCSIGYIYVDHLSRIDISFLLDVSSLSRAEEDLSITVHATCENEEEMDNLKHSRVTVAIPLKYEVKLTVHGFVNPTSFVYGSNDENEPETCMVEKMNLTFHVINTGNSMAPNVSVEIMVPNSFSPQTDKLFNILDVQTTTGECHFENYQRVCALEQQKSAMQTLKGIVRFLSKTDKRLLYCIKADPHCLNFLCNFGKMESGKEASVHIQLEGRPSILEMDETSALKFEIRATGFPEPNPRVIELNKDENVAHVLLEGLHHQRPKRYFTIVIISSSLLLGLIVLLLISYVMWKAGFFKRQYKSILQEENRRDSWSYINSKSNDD
α4β7, sequence (P26010 20-798): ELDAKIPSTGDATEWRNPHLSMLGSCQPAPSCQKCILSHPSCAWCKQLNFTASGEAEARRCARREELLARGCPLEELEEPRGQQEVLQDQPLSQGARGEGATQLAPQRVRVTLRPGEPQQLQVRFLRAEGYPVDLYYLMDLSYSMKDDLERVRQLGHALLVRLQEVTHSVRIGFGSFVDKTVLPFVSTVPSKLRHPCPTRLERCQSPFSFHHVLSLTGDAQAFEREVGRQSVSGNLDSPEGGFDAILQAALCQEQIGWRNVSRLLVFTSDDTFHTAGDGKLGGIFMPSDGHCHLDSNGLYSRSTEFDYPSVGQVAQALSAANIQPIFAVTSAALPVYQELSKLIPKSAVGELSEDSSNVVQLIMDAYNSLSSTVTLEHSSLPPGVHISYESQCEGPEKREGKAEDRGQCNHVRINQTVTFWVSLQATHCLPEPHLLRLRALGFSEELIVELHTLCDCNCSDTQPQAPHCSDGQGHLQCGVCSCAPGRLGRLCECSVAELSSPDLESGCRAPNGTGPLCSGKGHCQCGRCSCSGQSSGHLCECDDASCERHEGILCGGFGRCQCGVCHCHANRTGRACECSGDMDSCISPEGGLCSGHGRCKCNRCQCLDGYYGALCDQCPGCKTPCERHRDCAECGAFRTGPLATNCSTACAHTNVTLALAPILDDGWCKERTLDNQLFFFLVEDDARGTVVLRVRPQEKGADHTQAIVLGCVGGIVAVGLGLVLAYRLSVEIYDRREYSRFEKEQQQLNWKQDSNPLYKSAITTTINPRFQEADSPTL
T1 sequence (P13612 34-977 limits assumed, stated change not applied): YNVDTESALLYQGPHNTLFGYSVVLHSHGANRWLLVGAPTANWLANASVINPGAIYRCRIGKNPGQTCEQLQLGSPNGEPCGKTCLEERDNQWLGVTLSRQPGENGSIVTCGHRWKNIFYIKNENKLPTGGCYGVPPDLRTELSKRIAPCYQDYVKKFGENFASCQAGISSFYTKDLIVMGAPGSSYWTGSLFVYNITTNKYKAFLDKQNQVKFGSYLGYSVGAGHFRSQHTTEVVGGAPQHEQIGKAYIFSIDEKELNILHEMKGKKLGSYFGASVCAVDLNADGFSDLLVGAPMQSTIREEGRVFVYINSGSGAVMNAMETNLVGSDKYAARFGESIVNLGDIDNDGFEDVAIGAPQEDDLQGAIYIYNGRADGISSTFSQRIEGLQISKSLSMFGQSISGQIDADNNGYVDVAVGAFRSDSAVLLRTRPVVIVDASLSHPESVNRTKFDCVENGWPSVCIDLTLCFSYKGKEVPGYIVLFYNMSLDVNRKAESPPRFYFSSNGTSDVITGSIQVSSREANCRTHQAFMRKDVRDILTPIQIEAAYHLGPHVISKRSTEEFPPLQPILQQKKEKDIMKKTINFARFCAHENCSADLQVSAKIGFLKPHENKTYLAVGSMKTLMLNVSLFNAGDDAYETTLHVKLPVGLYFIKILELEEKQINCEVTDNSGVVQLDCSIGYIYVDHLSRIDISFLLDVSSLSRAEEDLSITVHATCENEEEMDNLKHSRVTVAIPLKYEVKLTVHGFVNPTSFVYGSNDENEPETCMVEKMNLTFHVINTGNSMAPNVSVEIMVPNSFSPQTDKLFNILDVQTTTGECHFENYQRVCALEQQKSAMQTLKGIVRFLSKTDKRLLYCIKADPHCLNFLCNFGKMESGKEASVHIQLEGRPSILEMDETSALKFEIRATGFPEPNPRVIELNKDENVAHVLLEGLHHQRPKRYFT
T1 sequence (P05556 21-728 limits assumed, stated change not applied): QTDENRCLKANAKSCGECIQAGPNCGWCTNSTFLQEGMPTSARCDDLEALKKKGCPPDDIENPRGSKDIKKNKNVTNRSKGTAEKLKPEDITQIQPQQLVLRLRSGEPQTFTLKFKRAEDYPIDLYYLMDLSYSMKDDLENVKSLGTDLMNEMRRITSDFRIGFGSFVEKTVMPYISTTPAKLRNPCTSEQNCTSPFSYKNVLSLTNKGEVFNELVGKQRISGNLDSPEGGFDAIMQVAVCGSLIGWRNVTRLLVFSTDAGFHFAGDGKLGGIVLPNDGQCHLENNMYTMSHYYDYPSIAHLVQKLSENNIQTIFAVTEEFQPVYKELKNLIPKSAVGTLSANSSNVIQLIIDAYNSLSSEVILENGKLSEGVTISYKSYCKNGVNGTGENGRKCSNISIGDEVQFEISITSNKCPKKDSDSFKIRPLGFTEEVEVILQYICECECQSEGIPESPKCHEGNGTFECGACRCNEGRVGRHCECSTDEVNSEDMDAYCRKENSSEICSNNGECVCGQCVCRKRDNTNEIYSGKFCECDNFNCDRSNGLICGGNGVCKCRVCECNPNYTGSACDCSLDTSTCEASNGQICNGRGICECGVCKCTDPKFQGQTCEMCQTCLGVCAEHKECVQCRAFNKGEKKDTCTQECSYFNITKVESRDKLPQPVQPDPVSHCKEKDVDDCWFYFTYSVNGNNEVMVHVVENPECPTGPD
T2 sequence (P13612 34-977 limits assumed): as the sequence (P13612 34-977 limits assumed, stated change not applied) above
T2 sequence (P26010 20-723 limits assumed): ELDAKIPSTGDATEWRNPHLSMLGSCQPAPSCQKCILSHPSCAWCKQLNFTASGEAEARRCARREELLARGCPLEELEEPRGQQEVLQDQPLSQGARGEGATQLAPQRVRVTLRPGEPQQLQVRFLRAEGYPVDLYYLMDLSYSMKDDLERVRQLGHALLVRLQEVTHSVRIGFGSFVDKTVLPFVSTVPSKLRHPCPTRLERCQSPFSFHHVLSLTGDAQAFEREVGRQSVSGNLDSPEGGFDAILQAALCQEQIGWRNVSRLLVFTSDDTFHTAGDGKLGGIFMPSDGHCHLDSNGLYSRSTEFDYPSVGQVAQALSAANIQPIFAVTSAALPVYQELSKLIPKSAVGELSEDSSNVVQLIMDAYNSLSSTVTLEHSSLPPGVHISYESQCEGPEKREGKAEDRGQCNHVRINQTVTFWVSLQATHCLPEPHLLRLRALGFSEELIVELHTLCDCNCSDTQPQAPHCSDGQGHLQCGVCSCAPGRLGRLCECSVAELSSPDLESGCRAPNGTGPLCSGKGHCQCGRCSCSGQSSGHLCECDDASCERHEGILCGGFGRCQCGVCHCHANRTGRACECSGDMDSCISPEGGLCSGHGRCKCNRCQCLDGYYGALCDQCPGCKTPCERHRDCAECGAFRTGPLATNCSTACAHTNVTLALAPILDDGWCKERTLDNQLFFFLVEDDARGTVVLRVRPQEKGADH

In general, pIC50 refers to −log10 of the IC50, conventionally taken in molar units. Turning to `CC(=O)N[C@@H]1C(=O)N(C)[C@@H](CCCNC(=N)N)C(=O)N[C@@H](CO)C(=O)N[C@@H](CC(=O)O)C(=O)N[C@@H]([C@@H](C)O)C(=O)N[C@@H](CC(C)C)C(=O)N[C@H](C(=O)N[C@@H](Cc2ccc(Cl)c(Cl)c2)C(=O)N[C@@H](CCC(=O)O)C(=O)N[C@H](CCCCNC(=O)COCC(=O)NCCCC[C@@H](NC(=O)[C@H](CCC(=O)O)NC(=O)[C@H](Cc2ccc(Cl)c(Cl)c2)NC(=O)[C@H]2NC(=O)[C@H](CC(C)C)NC(=O)[C@H]([C@@H](C)O)NC(=O)[C@H](CC(=O)O)NC(=O)[C@H](CO)NC(=O)[C@H](CCCNC(=N)N)N(C)C(=O)[C@@H](NC(C)=O)C(C)(C)SSC2(C)C)C(N)=O)C(N)=O)C(C)(C)SSC1(C)C` [compound 43] (I: Ac-[Pen][NMeR]SDTL[Pen][Phe(3,4-Cl2)]E[dK]-NH2 / II: Ac-[Pen][NMeR]SDTL[Pen][Phe(3,4-Cl2)]E[dK]-NH2; disulfide I:1-I:7, II:1-II:7; linker I:10-II:10 via Diglycolyl), the pIC50 on α4β7 was 7.60 to 8.00; at α4β1, 6.30 to 7.00; on rh integrin α4β7, above 8.00. Further, the half-life at 22 μM in data set [1] was 21 min.
Take `CC(=O)N[C@@H]1C(=O)N(C)[C@@H](CCCNC(=N)N)C(=O)N[C@@H](CO)C(=O)N[C@@H](CC(=O)O)C(=O)N[C@@H]([C@@H](C)O)C(=O)N[C@@H](CC(C)C)C(=O)N[C@H](C(=O)N[C@@H](Cc2c[nH]c3ccccc23)C(=O)N[C@@H](CCC(=O)O)CC(=O)N(C)[C@@H](CCCCNC(=O)COCC(=O)NCCCC[C@@H](C(N)=O)N(C)C(=O)C[C@H](CCC(=O)O)NC(=O)[C@H](Cc2c[nH]c3ccccc23)NC(=O)[C@H]2NC(=O)[C@H](CC(C)C)NC(=O)[C@H]([C@@H](C)O)NC(=O)[C@H](CC(=O)O)NC(=O)[C@H](CO)NC(=O)[C@H](CCCNC(=N)N)N(C)C(=O)[C@@H](NC(C)=O)C(C)(C)SSC2(C)C)C(N)=O)C(C)(C)SSC1(C)C` [compound 141] (I: Ac-[Pen][NMeR]SDTL[Pen]W[β3hE][NMeK]-NH2 / II: Ac-[Pen][NMeR]SDTL[Pen]W[β3hE][NMeK]-NH2; disulfide I:1-I:7, II:1-II:7; linker I:10-II:10 via Diglycolyl): the pIC50 at α4β7 was above 8.00; on α4β1, 6.00 to 6.30; at rh integrin α4β7 it was above 8.00.
Turning to `CC(=O)N[C@@H]1C(=O)N(C)[C@@H](CCCNC(=N)N)C(=O)N[C@@H](CO)C(=O)N[C@@H](CC(=O)O)C(=O)N[C@@H]([C@@H](C)O)C(=O)N[C@@H](CC(C)C)C(=O)N[C@H](C(=O)N[C@@H](Cc2ccc(O)cc2)C(=O)N[C@@H](CCC(=O)O)C(=O)N[C@H](CCCCNC(=O)COCC(=O)NCCCC[C@@H](NC(=O)[C@H](CCC(=O)O)NC(=O)[C@H](Cc2ccc(O)cc2)NC(=O)[C@H]2NC(=O)[C@H](CC(C)C)NC(=O)[C@H]([C@@H](C)O)NC(=O)[C@H](CC(=O)O)NC(=O)[C@H](CO)NC(=O)[C@H](CCCNC(=N)N)N(C)C(=O)[C@@H](NC(C)=O)C(C)(C)SSC2(C)C)C(N)=O)C(N)=O)C(C)(C)SSC1(C)C` [compound 22] (I: Ac-[Pen][NMeR]SDTL[Pen]YE[dK]-NH2 / II: Ac-[Pen][NMeR]SDTL[Pen]YE[dK]-NH2; disulfide I:1-I:7, II:1-II:7; linker I:10-II:10 via Diglycolyl), the pIC50 on α4β7 was above 8.00; on α4β1 it was 6.30 to 7.00; at rh integrin α4β7, above 8.00. In data set [1], the half-life at 22 μM was below 20 min.
On to `CC(=O)N[C@@H]1C(=O)N(C)[C@@H](CCCNC(=N)N)C(=O)N[C@@H](CO)C(=O)N[C@@H](CC(=O)O)C(=O)N[C@@H]([C@@H](C)O)C(=O)N[C@@H](CC(C)C)C(=O)N[C@H](C(=O)N[C@@H](Cc2cccc3ccccc23)C(=O)N[C@H](CCC(=O)O)C(=O)N(C)[C@H](CCCCNC(=O)COCC(=O)NCCCC[C@H](C(N)=O)N(C)C(=O)[C@@H](CCC(=O)O)NC(=O)[C@H](Cc2cccc3ccccc23)NC(=O)[C@H]2NC(=O)[C@H](CC(C)C)NC(=O)[C@H]([C@@H](C)O)NC(=O)[C@H](CC(=O)O)NC(=O)[C@H](CO)NC(=O)[C@H](CCCNC(=N)N)N(C)C(=O)[C@@H](NC(C)=O)C(C)(C)SSC2(C)C)C(N)=O)C(C)(C)SSC1(C)C` [compound 38] (I: Ac-[Pen][NMeR]SDTL[Pen][1Nal][dE][dNMeK]-NH2 / II: Ac-[Pen][NMeR]SDTL[Pen][1Nal][dE][dNMeK]-NH2; disulfide I:1-I:7, II:1-II:7; linker I:10-II:10 via Diglycolyl), for which the values for the pIC50 at α4β7, at α4β1 and at rh integrin α4β7 were above 8.00, 6.30 to 7.00 and above 8.00, respectively. Besides, the half-life at 22 μM in data set [1] was above 180 min.
Turning to `CC(=O)N[C@@H]1C(=O)N(C)[C@@H](CCCNC(=N)N)C(=O)N[C@@H](CO)C(=O)N[C@@H](CC(=O)O)C(=O)N[C@@H]([C@@H](C)O)C(=O)N[C@@H](CC(C)C)C(=O)N[C@H](C(=O)N[C@@H](Cc2ccc3ccccc3c2)C(=O)N[C@@H](CCC(=O)O)C(=O)N(C)[C@H](CCCCNC(=O)COCC(=O)NCCCC[C@H](C(N)=O)N(C)C(=O)[C@H](CCC(=O)O)NC(=O)[C@H](Cc2ccc3ccccc3c2)NC(=O)[C@H]2NC(=O)[C@H](CC(C)C)NC(=O)[C@H]([C@@H](C)O)NC(=O)[C@H](CC(=O)O)NC(=O)[C@H](CO)NC(=O)[C@H](CCCNC(=N)N)N(C)C(=O)[C@@H](NC(C)=O)C(C)(C)SSC2(C)C)C(N)=O)C(C)(C)SSC1(C)C` [compound 41] (I: Ac-[Pen][NMeR]SDTL[Pen][2Nal]E[dNMeK]-NH2 / II: Ac-[Pen][NMeR]SDTL[Pen][2Nal]E[dNMeK]-NH2; disulfide I:1-I:7, II:1-II:7; linker I:10-II:10 via Diglycolyl), the pIC50 is above 8.00 at α4β7, 6.30 to 7.00 on α4β1 and above 8.00 on rh integrin α4β7. Also, in data set [1], the half-life at 22 μM was above 180 min.
For the molecule `CC(=O)N[C@@H]1C(=O)N(C)[C@@H](CCCNC(=N)N)C(=O)N[C@@H](CO)C(=O)N[C@@H](CC(=O)O)C(=O)N[C@@H]([C@@H](C)O)C(=O)N[C@@H](CC(C)C)C(=O)N[C@H](C(=O)N[C@@H](Cc2ccc(-c3ccccc3)cc2)C(=O)N[C@@H](CCC(=O)O)C(=O)N[C@H](CCCCNC(=O)COCC(=O)NCCCC[C@@H](NC(=O)[C@H](CCC(=O)O)NC(=O)[C@H](Cc2ccc(-c3ccccc3)cc2)NC(=O)[C@H]2NC(=O)[C@H](CC(C)C)NC(=O)[C@H]([C@@H](C)O)NC(=O)[C@H](CC(=O)O)NC(=O)[C@H](CO)NC(=O)[C@H](CCCNC(=N)N)N(C)C(=O)[C@@H](NC(C)=O)C(C)(C)SSC2(C)C)C(N)=O)C(N)=O)C(C)(C)SSC1(C)C` [compound 134] (I: Ac-[Pen][NMeR]SDTL[Pen][Bip]E[dK]-NH2 / II: Ac-[Pen][NMeR]SDTL[Pen][Bip]E[dK]-NH2; disulfide I:1-I:7, II:1-II:7; linker I:10-II:10 via Diglycolyl), the pIC50 at α4β7 was above 8.00; on α4β1, 6.30 to 7.00; on rh integrin α4β7, above 8.00.
